{"source": "patent EP4700019A1", "about": "“CRYSTAL FORM OF 1,5-DIHYDRO-2,4-BENZODIAZEPINE-3-ONE DERIVATIVE CITRATE, PREPARATION METHOD, AND USE THEREOF” (priority 2023, dated 2024)", "key": {"[1]": {"assay": "Stability test (high humidity, light, high temperature, high temperature stress; HPLC)", "format": "physicochemical", "method": "These samples were stored under two different conditions: (1) relative humidity of 92.5% at 25°C, and (2) relative humidity of 75% ± 1% at room temperature; The samples were maintained under these conditions for 10 days. Sampling was performed on day 0 and day 10, followed by HPLC analysis.\nHPLC analysis was performed on day 0 and day 10.\nSamples were collected and subjected to HPLC analysis."}, "[2]": {"format": "physicochemical", "conditions": "Water, 25°C ± 2°C", "method": "An appropriate amount of the test substance was accurately weighed And placed under conditions of 25°C ± 2°C. Different solvents were added in suitable quantities, and the mixture was vigorously shaken for 30 seconds every 5 minutes, and the dissolution status was observed over a period of 30 minutes. […]"}, "[3]": {"assay": "Pharmacokinetics and bioavailability test in beagle dogs (Test Example 3)", "format": "in vivo", "conditions": "for bioavailability: absolute oral bioavailability", "method": "Six healthy male beagle dogs were randomly divided into three groups, with two dogs in each group. […] Blood samples were collected from the forelimb vein of the dogs before and at various time points after administration. Plasma drug concentrations at different times were measured by LC-MS/MS. Pharmacokinetic parameters and the absolute oral bioavailability were calculated using WinNonlin7.0 software."}, "[4]": {"assay": "Stability test (high humidity, light, high temperature, high temperature stress; HPLC)", "format": "physicochemical", "remark": "listed apart in the source"}, "[5]": {"assay": "Pharmacokinetics and bioavailability test in beagle dogs (Test Example 4)", "format": "in vivo", "method": "Experimental method: Six healthy beagle dogs were randomly divided into two groups, with two dogs (one female and one male) in the first group, and four dogs (two females and two males) in the second group. […] Blood samples were collected from the forelimb veins of beagle dogs at various time points before and after administration. Plasma was obtained by centrifugation, and drug concentrations in plasma at different time points were measured using LC-MS/MS. Pharmacokinetic parameters and the absolute oral bioavailability were calculated using WinNonlin8.0 software."}, "[6]": {"target": "dopamine receptors (including D2 receptors)", "conditions": "no significant affinity; cited from earlier work"}, "[7]": {"target": "muscarinic receptors", "conditions": "no significant affinity; cited from earlier work"}, "[8]": {"target": "5-HT2B receptors (Homo sapiens, UniProt P41595)", "sequence (P41595 whole entry)": "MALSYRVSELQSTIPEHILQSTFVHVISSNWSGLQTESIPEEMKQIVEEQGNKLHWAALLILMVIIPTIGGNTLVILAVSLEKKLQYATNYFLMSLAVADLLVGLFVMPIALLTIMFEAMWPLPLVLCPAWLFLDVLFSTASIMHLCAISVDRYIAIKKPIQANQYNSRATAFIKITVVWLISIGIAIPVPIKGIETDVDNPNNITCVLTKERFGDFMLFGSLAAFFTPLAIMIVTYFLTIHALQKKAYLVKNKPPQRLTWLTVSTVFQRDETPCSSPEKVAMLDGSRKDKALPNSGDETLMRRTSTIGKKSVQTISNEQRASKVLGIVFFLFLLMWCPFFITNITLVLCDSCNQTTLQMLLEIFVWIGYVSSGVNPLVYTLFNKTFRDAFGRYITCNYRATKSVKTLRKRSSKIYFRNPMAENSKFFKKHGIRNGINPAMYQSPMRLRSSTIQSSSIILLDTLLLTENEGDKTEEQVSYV", "conditions": "no significant affinity; cited from earlier work"}, "[9]": {"target": "calcium channel receptors", "conditions": "no significant affinity; cited from earlier work"}, "[10]": {"target": "adrenergic receptors", "conditions": "no significant affinity; cited from earlier work"}, "[11]": {"conditions": "75% High humidity for 10 days, room temperature"}, "[12]": {"conditions": "92.5% High humidity for 10 days, 25°C"}, "[13]": {"conditions": "PO 5 mg/kg (calculated as free base), capsules, male beagle dogs, plasma"}, "[14]": {"conditions": "High temperature of 40 °C for 10 days"}, "[15]": {"conditions": "High temperature of 60 °C for 10 days"}, "[16]": {"conditions": "High temperature of 105 °C for 1 day"}, "[17]": {"conditions": "Light exposure for 10 days (5000 lx ± 500 lx; UV 90 µW/cm^2)"}, "[18]": {"conditions": "IV 0.69 mg/kg (calculated based on free base)"}, "[19]": {"conditions": "dog, in vivo, IV 0.69 mg/kg (calculated based on free base)"}, "[20]": {"conditions": "PO 10 mg/kg (calculated based on free base), capsule"}, "[21]": {"conditions": "both sexes, dog, plasma, PO 10 mg/kg (calculated based on free base), capsule"}}, "note": "Counter-ions that a name gives are not always drawn. Like-named read-outs stand apart in the source and are kept apart here.", "data": [{"compound": "CN1CCC(N2Cc3cc(F)ccc3CN(Cc3ccc(OC4CC4)cc3)C2=O)CC1", "note": "[Base compound, 2-(4-cyclopropyloxybenzyl)-7-fluoro-4-(1-methylpiperidin-4-yl)-1,2,4-tetrahydro-3H-benzo[e][1,3]d iazepine-3-one]", "values": [{"measurement": "HPLC determination results of the stability", "setting": "[1]; [11]", "result": 97.643, "unit": "%"}, {"measurement": "HPLC determination results of the stability", "setting": "[1]; [12]", "result": 97.703, "unit": "%"}, {"measurement": "HPLC determination results of the stability", "setting": "[1]; original sample (0 day)", "result": 98.018, "unit": "%"}, {"measurement": "Conclusion (solubility)", "setting": "[2]", "result": "insoluble"}, {"measurement": "AUC0-last", "setting": "[3]; [13]", "result": 43.9, "unit": "ng·h/mL"}, {"measurement": "Cmax", "setting": "[3]; [13]", "result": 10.2, "unit": "ng/mL"}, {"measurement": "bioavailability", "setting": "[3]; PO 5 mg/kg (calculated as free base), capsules, male beagle dogs", "result": 2.4, "unit": "%"}, {"measurement": "HPLC determination results of the stability", "setting": "[4]; [14]", "result": 95.418, "unit": "%"}, {"measurement": "HPLC determination results of the stability", "setting": "[4]; [15]", "result": 82.682, "unit": "%"}, {"measurement": "HPLC determination results of the stability", "setting": "[4]; [16]", "result": 76.929, "unit": "%"}, {"measurement": "HPLC determination results of the stability", "setting": "[4]; [17]", "result": 95.604, "unit": "%"}]}, {"compound": "CN1CCC(N2Cc3cc(F)ccc3CN(Cc3ccc(OC4CC4)cc3)C2=O)CC1", "note": "[citrate, 2-(4-cyclopropyloxybenzyl)-7-fluoro-4-(1-methylpiperidin-4-yl)-1,2,4-tetrahydro-3H-benzo[e][1 ,3]diazepine-3-one citrate]", "values": [{"measurement": "AUC_%Extrap", "setting": "[5]; [18]", "result": 4.20, "unit": "%"}, {"measurement": "MPT0-last", "setting": "[5]; [18]", "result": 4.41, "unit": "h"}, {"measurement": "Rsq_adj", "setting": "[5]; [18]", "result": 1.00}, {"measurement": "AUC(0-inf)", "setting": "[5]; [19]", "result": 466, "unit": "ng·h/mL"}, {"measurement": "AUC(0-t)", "setting": "[5]; [19]", "result": 447, "unit": "ng·h/mL"}, {"measurement": "Cmax", "setting": "[5]; [19]", "result": 220, "unit": "ng/mL"}, {"measurement": "Tmax", "setting": "[5]; [19]", "result": 0.08, "unit": "h"}, {"measurement": "clearance", "setting": "[5]; [19]", "result": 24.7, "unit": "mL/min/kg"}, {"measurement": "half-life", "setting": "[5]; [19]", "result": 2.2, "unit": "h"}, {"measurement": "Vd", "setting": "[5]; dog, in vivo, IV 0.69 mg/kg (calculated based on free base), read-out: Vdss", "result": 2.5, "unit": "L/kg"}, {"measurement": "AUC(0-t)", "setting": "[3]; dog, in vivo, IV 1 mg/kg, male beagle dogs, plasma", "result": 348, "unit": "ng·h/mL"}, {"measurement": "Cmax", "setting": "[3]; dog, in vivo, IV 1 mg/kg, male beagle dogs, plasma, read-out: Cmax", "result": 138, "unit": "ng/mL"}]}, {"compound": "CN1CCC(N2Cc3cc(F)ccc3CN(Cc3ccc(OC4CC4)cc3)C2=O)CC1.O=C(O)CC(O)(CC(=O)O)C(=O)O", "note": "[Crystalline form II, 2-(4-cyclopropyloxybenzyl)-7-fluoro-4-(1-methylpiperidin-4-yl)-1,2,4,5-tetrahydro-3H-benzo[e] [1,3]diazepine-3-one citrate]", "values": [{"measurement": "AUC_%Extrap", "setting": "[5]; [20]", "result": 2.12, "unit": "%"}, {"measurement": "MPT0-last", "setting": "[5]; [20]", "result": 6.62, "unit": "h"}, {"measurement": "Rsq_adj", "setting": "[5]; [20]", "result": 1.00}, {"measurement": "AUC(0-inf)", "setting": "[5]; [21]", "result": 6400, "unit": "ng·h/mL"}, {"measurement": "AUC(0-t)", "setting": "[5]; [21]", "result": 6280, "unit": "ng·h/mL"}, {"measurement": "Cmax", "setting": "[5]; [21]", "result": 754, "unit": "ng/mL"}, {"measurement": "Tmax", "setting": "[5]; [21]", "result": 2.25, "unit": "h"}, {"measurement": "half-life", "setting": "[5]; [21]", "result": 3.96, "unit": "h"}, {"measurement": "bioavailability", "setting": "[5]; both sexes, dog, plasma, PO 10 mg/kg (calculated based on free base), capsule, absolute oral bioavailability", "result": 94.8, "unit": "%"}, {"measurement": "HPLC determination results of the stability", "setting": "[1]; [11]", "result": 99.749, "unit": "%"}, {"measurement": "HPLC determination results of the stability", "setting": "[1]; [12]", "result": 99.735, "unit": "%"}, {"measurement": "HPLC determination results of the stability", "setting": "[1]; original sample (0 day)", "result": 99.839, "unit": "%"}, {"measurement": "Conclusion (solubility)", "setting": "[2]; citrate", "result": "Very Slightly Soluble"}, {"measurement": "bioavailability", "setting": "[3]; dog, plasma, PO 5 mg/kg (calculated as free base), capsules, male beagle dogs, read-out: bioavailability", "result": 7.4, "unit": "%"}, {"measurement": "AUC(0-t)", "setting": "[3]; dog, PO 5 mg/kg (calculated as free base), capsules, male beagle dogs, plasma", "result": 139, "unit": "ng·h/mL"}, {"measurement": "Cmax", "setting": "[3]; dog, PO 5 mg/kg (calculated as free base), capsules, male beagle dogs, plasma, read-out: Cmax", "result": 38.8, "unit": "ng/mL"}, {"measurement": "increase of bioavailability compared with the base compound", "setting": "[3]; oral solid dosage form, PO 5 mg/kg, beagle dogs", "result": "more than 3 times"}, {"measurement": "HPLC determination results of the stability", "setting": "[4]; [14]", "result": 99.756, "unit": "%"}, {"measurement": "HPLC determination results of the stability", "setting": "[4]; [15]", "result": 99.723, "unit": "%"}, {"measurement": "HPLC determination results of the stability", "setting": "[4]; [16]", "result": 99.709, "unit": "%"}, {"measurement": "HPLC determination results of the stability", "setting": "[4]; [17]", "result": 99.762, "unit": "%"}]}, {"compound": "CC(C)COc1ccc(CNC(=O)N(Cc2ccc(F)cc2)C2CCN(C)CC2)cc1", "note": "[Pimavanserin]", "values": [{"measurement": "Ki", "setting": "[6]", "result": "> 300", "unit": "nM"}, {"measurement": "Ki", "setting": "[7]", "result": "> 300", "unit": "nM"}, {"measurement": "Ki", "setting": "[8]", "result": "> 300", "unit": "nM"}, {"measurement": "Ki", "setting": "[9]", "result": "> 300", "unit": "nM"}, {"measurement": "Ki", "setting": "[10]", "result": "> 300", "unit": "nM"}]}]}
